Laboratory results from the supplement of paper PMC10307832.

Legend:
Experiment in all cases: relative viability (nuclei count vs DMSO), 5 days (fraction); higher = more cells survive
[1] = system: NCI-H1755
Procedure, shortened: (§1)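 Relative viability was taken as the ratio of nuclei in treated wells to nuclei in vehicle wells. Lung cancer cell lines in 1536-well plates received compounds by pin tool one day after seeding, either one drug alone or a fixed anchor-drug dose plus five library-drug doses (not always all listed) in √10 steps. Nuclei were counted on 4× images after 5 days of treatment, and values are medians of duplicate plates.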

[2] = system: NCI-H520
Procedure, shortened: as §1

[3] = system: NCI-H522
Procedure, shortened: as §1

[4] = system: LCLC-103H
Procedure, shortened: as §1

[5] = system: NCI-H441
Procedure, shortened: as §1

[6] = system: NCI-H2347
Procedure, shortened: as §1

[7] = system: SK-MES-1
Procedure, shortened: as §1

[8] = system: NCI-H727
Procedure, shortened: as §1

[9] = system: NCI-H2170
Procedure, shortened: as §1

[10] = system: RERF-LC-KJ
Procedure, shortened: as §1

[11] = system: NCI-H1355
Procedure, shortened: as §1

[12] = system: NCI-H460
Procedure, shortened: as §1

[13] = system: SW 900
Procedure, shortened: as §1

[14] = system: NCI-H322M
Procedure, shortened: as §1

[15] = system: NCI-H650
Procedure, shortened: as §1

[16] = system: NCI-H1651
Procedure, shortened: as §1

[17] = system: NCI-H1792
Procedure, shortened: as §1

[18] = system: NCI-H1915
Procedure, shortened: as §1

[19] = system: NCI-H661
Procedure, shortened: as §1

[20] = system: PC-14
Procedure, shortened: as §1

[21] = system: LXF-289
Procedure, shortened: as §1

[22] = system: NCI-H3122
Procedure, shortened: as §1

COc1cc(N2CCC(C(N)=O)CC2)ccc1Nc1nc(N)c(Cl)c(Nc2ccccc2S(=O)(=O)C(C)C)n1 [HG-5-88-01] + CC(=O)c1c(C)c2cnc(Nc3ccc(N4CCNCC4)cn3)nc2n(C2CCCC2)c1=O [Palbociclib] (partner 0.5 µM)
relative viability ([1]; first compound 0.04 µM): 0.42
relative viability ([1]; first compound 0.1265 µM): 0.494
relative viability ([1]; first compound 0.4 µM): 0.485
relative viability ([1]; first compound 1.265 µM): 0.419
relative viability ([1]; first compound 4 µM): 0.455
relative viability ([2]; first compound 0.04 µM): 0.206
relative viability ([2]; first compound 0.1265 µM): 0.216
relative viability ([2]; first compound 0.4 µM): 0.186
relative viability ([2]; first compound 1.265 µM): 0.247
relative viability ([2]; first compound 4 µM): 0.232
relative viability ([3]; first compound 0.04 µM): 1.06
relative viability ([3]; first compound 0.1265 µM): 1.03
relative viability ([3]; first compound 0.4 µM): 1.01
relative viability ([3]; first compound 1.265 µM): 0.829
relative viability ([3]; first compound 4 µM): 0.851
relative viability ([4]; first compound 0.04 µM): 0.48
relative viability ([4]; first compound 0.1265 µM): 0.48
relative viability ([4]; first compound 0.4 µM): 0.443
relative viability ([4]; first compound 1.265 µM): 0.504
relative viability ([4]; first compound 4 µM): 0.445
relative viability ([5]; first compound 0.04 µM): 0.209
relative viability ([5]; first compound 0.1265 µM): 0.202
relative viability ([5]; first compound 0.4 µM): 0.146
relative viability ([5]; first compound 1.265 µM): 0.152
relative viability ([5]; first compound 4 µM): 0.172
relative viability ([6]; first compound 0.04 µM): 0.439
relative viability ([6]; first compound 0.1265 µM): 0.417
relative viability ([6]; first compound 0.4 µM): 0.467
relative viability ([6]; first compound 1.265 µM): 0.431
relative viability ([6]; first compound 4 µM): 0.425
relative viability ([7]; first compound 0.04 µM): 0.319
relative viability ([7]; first compound 0.1265 µM): 0.273
relative viability ([7]; first compound 0.4 µM): 0.27
relative viability ([7]; first compound 1.265 µM): 0.304
relative viability ([7]; first compound 4 µM): 0.247
relative viability ([8]; first compound 0.04 µM): 0.677
relative viability ([8]; first compound 0.1265 µM): 0.629
relative viability ([8]; first compound 0.4 µM): 0.66
relative viability ([8]; first compound 4 µM): 0.61
relative viability ([9]; first compound 0.04 µM): 0.366
relative viability ([9]; first compound 0.1265 µM): 0.386
relative viability ([9]; first compound 0.4 µM): 0.407
relative viability ([9]; first compound 1.265 µM): 0.361
relative viability ([9]; first compound 4 µM): 0.457
relative viability ([10]; first compound 0.04 µM): 1.07
relative viability ([10]; first compound 0.1265 µM): 1.14
relative viability ([10]; first compound 0.4 µM): 1.08
relative viability ([10]; first compound 1.265 µM): 0.908
relative viability ([10]; first compound 4 µM): 0.656
relative viability ([11]; first compound 0.04 µM): 0.4
relative viability ([11]; first compound 0.1265 µM): 0.394
relative viability ([11]; first compound 0.4 µM): 0.426
relative viability ([11]; first compound 1.265 µM): 0.338
relative viability ([11]; first compound 4 µM): 0.362
relative viability ([12]; first compound 0.04 µM): 0.171
relative viability ([12]; first compound 0.1265 µM): 0.155
relative viability ([12]; first compound 0.4 µM): 0.0931
relative viability ([12]; first compound 1.265 µM): 0.247
relative viability ([12]; first compound 4 µM): 0.274
relative viability ([13]; first compound 0.04 µM): 0.54
relative viability ([13]; first compound 0.1265 µM): 0.584
relative viability ([13]; first compound 0.4 µM): 0.473
relative viability ([13]; first compound 1.265 µM): 0.509
relative viability ([13]; first compound 4 µM): 0.567
relative viability ([14]; first compound 0.04 µM): 0.532
relative viability ([14]; first compound 0.1265 µM): 0.492
relative viability ([14]; first compound 0.4 µM): 0.477
relative viability ([14]; first compound 1.265 µM): 0.337
relative viability ([14]; first compound 4 µM): 0.443
relative viability ([15]; first compound 0.04 µM): 0.398
relative viability ([15]; first compound 0.1265 µM): 0.341
relative viability ([15]; first compound 0.4 µM): 0.338
relative viability ([15]; first compound 1.265 µM): 0.303
relative viability ([15]; first compound 4 µM): 0.296
relative viability ([16]; first compound 0.04 µM): 0.571
relative viability ([16]; first compound 0.1265 µM): 0.51
relative viability ([16]; first compound 0.4 µM): 0.517
relative viability ([16]; first compound 1.265 µM): 0.458
relative viability ([16]; first compound 4 µM): 0.616
relative viability ([17]; first compound 0.04 µM): 0.74
relative viability ([17]; first compound 0.1265 µM): 0.675
relative viability ([17]; first compound 0.4 µM): 0.623
relative viability ([17]; first compound 4 µM): 0.614
relative viability ([18]; first compound 0.04 µM): 0.592
relative viability ([18]; first compound 0.1265 µM): 0.559
relative viability ([18]; first compound 0.4 µM): 0.588
relative viability ([18]; first compound 1.265 µM): 0.565
relative viability ([18]; first compound 4 µM): 0.502
relative viability ([19]; first compound 0.04 µM): 0.384
relative viability ([19]; first compound 0.1265 µM): 0.417
relative viability ([19]; first compound 0.4 µM): 0.416
relative viability ([19]; first compound 1.265 µM): 0.359
relative viability ([19]; first compound 4 µM): 0.426
relative viability ([20]; first compound 0.04 µM): 0.545
relative viability ([20]; first compound 0.1265 µM): 0.611
relative viability ([20]; first compound 0.4 µM): 0.464
relative viability ([20]; first compound 1.265 µM): 0.221
relative viability ([20]; first compound 4 µM): 0.0845
relative viability ([21]; first compound 0.04 µM): 0.583
relative viability ([21]; first compound 0.1265 µM): 0.628
relative viability ([21]; first compound 0.4 µM): 0.572
relative viability ([21]; first compound 1.265 µM): 0.59
relative viability ([21]; first compound 4 µM): 0.636
relative viability ([22]; first compound 0.04 µM): 0.161
relative viability ([22]; first compound 0.1265 µM): 0.138
relative viability ([22]; first compound 0.4 µM): 0.11
relative viability ([22]; first compound 1.265 µM): 0.111
relative viability ([22]; first compound 4 µM): 0.0988

CC(C)Oc1cc(Nc2nc(N[C@@H](C)c3ccc(F)cn3)ncc2Cl)n[nH]1 [AZ23] + CC(=O)c1c(C)c2cnc(Nc3ccc(N4CCNCC4)cn3)nc2n(C2CCCC2)c1=O [Palbociclib] (partner 0.5 µM)
relative viability ([1]; first compound 0.01 µM): 0.472
relative viability ([1]; first compound 0.03162 µM): 0.488
relative viability ([1]; first compound 0.3162 µM): 0.49
relative viability ([2]; first compound 0.01 µM): 0.236
relative viability ([2]; first compound 0.03162 µM): 0.193
relative viability ([2]; first compound 0.3162 µM): 0.177
relative viability ([3]; first compound 0.01 µM): 1.2
relative viability ([3]; first compound 0.03162 µM): 1.01
relative viability ([3]; first compound 0.3162 µM): 0.795
relative viability ([4]; first compound 0.01 µM): 0.485
relative viability ([4]; first compound 0.03162 µM): 0.421
relative viability ([4]; first compound 0.3162 µM): 0.503
relative viability ([5]; first compound 0.01 µM): 0.199
relative viability ([5]; first compound 0.03162 µM): 0.198
relative viability ([5]; first compound 0.3162 µM): 0.202
relative viability ([6]; first compound 0.01 µM): 0.441
relative viability ([6]; first compound 0.03162 µM): 0.418
relative viability ([6]; first compound 0.3162 µM): 0.398
relative viability ([7]; first compound 0.03162 µM): 0.291
relative viability ([7]; first compound 0.3162 µM): 0.328
relative viability ([8]; first compound 0.01 µM): 0.59
relative viability ([8]; first compound 0.03162 µM): 0.66
relative viability ([8]; first compound 0.3162 µM): 0.619
relative viability ([9]; first compound 0.01 µM): 0.451
relative viability ([9]; first compound 0.03162 µM): 0.645
relative viability ([9]; first compound 0.3162 µM): 0.473
relative viability ([10]; first compound 0.01 µM): 1.13
relative viability ([10]; first compound 0.03162 µM): 1.14
relative viability ([10]; first compound 0.3162 µM): 1.14
relative viability ([11]; first compound 0.01 µM): 0.437
relative viability ([11]; first compound 0.03162 µM): 0.455
relative viability ([11]; first compound 0.3162 µM): 0.375
relative viability ([12]; first compound 0.01 µM): 0.0638
relative viability ([12]; first compound 0.03162 µM): 0.146
relative viability ([12]; first compound 0.3162 µM): 0.127
relative viability ([13]; first compound 0.01 µM): 0.653
relative viability ([13]; first compound 0.3162 µM): 0.501
relative viability ([14]; first compound 0.01 µM): 0.446
relative viability ([14]; first compound 0.03162 µM): 0.472
relative viability ([14]; first compound 0.3162 µM): 0.485
relative viability ([15]; first compound 0.01 µM): 0.352
relative viability ([15]; first compound 0.03162 µM): 0.309
relative viability ([15]; first compound 0.3162 µM): 0.301
relative viability ([16]; first compound 0.01 µM): 0.523
relative viability ([16]; first compound 0.03162 µM): 0.526
relative viability ([16]; first compound 0.3162 µM): 0.505
relative viability ([17]; first compound 0.01 µM): 0.737
relative viability ([17]; first compound 0.03162 µM): 0.617
relative viability ([17]; first compound 0.3162 µM): 0.645
relative viability ([18]; first compound 0.01 µM): 0.571
relative viability ([18]; first compound 0.03162 µM): 0.492
relative viability ([18]; first compound 0.3162 µM): 0.5
relative viability ([19]; first compound 0.01 µM): 0.367
relative viability ([19]; first compound 0.03162 µM): 0.391
relative viability ([19]; first compound 0.3162 µM): 0.349
relative viability ([20]; first compound 0.01 µM): 0.492
relative viability ([20]; first compound 0.03162 µM): 0.567
relative viability ([20]; first compound 0.3162 µM): 0.577
relative viability ([21]; first compound 0.01 µM): 0.739
relative viability ([21]; first compound 0.03162 µM): 0.631
relative viability ([21]; first compound 0.3162 µM): 0.534
relative viability ([22]; first compound 0.01 µM): 0.197
relative viability ([22]; first compound 0.03162 µM): 0.173
relative viability ([22]; first compound 0.3162 µM): 0.23
